Source: US7344829B2, “Methods for detecting the efficacy of anticancer treatments” (Board of Regents, the University of Texas System, priority 2000, dated 2008)
Marks after values point to notes of the source that are not given here.

Experiments:
[1] = system: L3.6pl human pancreatic cancer cells; assay: Immunohistochemical analysis of human pancreatic carcinoma in the pancreas of treated nude mice; assay type: in vivo; details: for PCNA+ tumor cells / TUNEL+ tumor cells: mean ± SD, 10 random 0.159-mm^2 fields at ×100; for CD (CD31, tumor MVD per field): staining with antibodies against CD31
From the text: Immunohistochemical (IHC) Determination of VEGF, IL-8, PCNA, CD31/PECAM-1, and EGF-R. Paraffin-embedded tissues were used for identification of VEGF, IL-8, EGF-R, and proliferating cell nuclear antigen (PCNA). Sections (4–6 μm thick) were mounted on positively-charged Superfrost slides (Fisher Scientific, Co., Houston, Tex.) and dried overnight. Sections were deparaffinized in xylene followed by treatment with a graded series of alcohol (100%, 95%, 80% ethanol/ddH2O [v/v]) and rehydrated in PBS, pH 7.5. Sections analyzed for PCNA were microwaved 5 min for “antigen retrieval” (Shi et al. 1991). All other paraffin-embedded tissues were treated with pepsin (Biomeda) for 15 min at 37° C. and washed with PBS. Frozen tissues used for identification of CD31/PECAM-1, and activated EGF-R were sectioned (8–10 μm), mounted on positively charged Plus slides (Fisher Scientific), and air-dried for 30 min. Frozen sections were fixed in cold acetone (5 min), acetone/chloroform (v/v) (5 min), and acetone (5 min) and washed with PBS. Immunohistochemical procedures were performed as described previously (Rak et al. 1996). Positive reaction was visualized by incubating the slides with stable 3,3′-diaminobenzidine (DAB) for 10–20 min or 3-amino-9-ethylcarbazole (AEC) after CD31 staining. The sections were rinsed with distilled water, counterstained with Gill's hematoxylin for 1 min, and mounted with Universal Mount (Research Genetics). […] Sections analyzed for activated EGF-R were pretreated with goat anti-mouse IgG F(ab)2 fragment (1:10 dilution in PBS) for 4–6 h before incubation with the primary antibody. The positive reaction following staining for activated EGF-R was enhanced with osmium tetraoxide (4% aqueous solution) at a 1:1000 dilution in ddH2O after incubation with DAB.
Immunofluorescence Double Staining for CD31/PECAM-1 (Endothelial Cells) and TUNEL (Apoptotic Cells). Frozen tissues were sectioned (8–10 μm), mounted on positively charged slides, air-dried for 30 min, and fixed in cold acetone for 5 min, acetone+chloroform (1:1) for 5 min, and acetone for 5 min. Samples were washed 3 times with PBS, incubated with protein-blocking solution containing 5% normal horse serum and 1% normal goat serum in PBS for 20 min at room temperature, and incubated with the appropriate dilution (1:400) of rat monoclonal anti-mouse CD31 antibody (human cross-reactive) over 18 h at 4° C. After the samples were rinsed 4 times for 3 min each with PBS, the slides were incubated with the appropriate dilution (1:200) of secondary goat anti-rat conjugated to Texas Red for 1 h at room temperature in the dark. Samples were washed twice with PBS containing 0.1% Brij and washed with PBS for 5 min.
TUNEL was performed using a commercially available apoptosis detection kit with the following modifications: samples were fixed with 4% paraformaldehyde (methanol-free) for 10 min at room temperature, washed twice with PBS for 5 min, and then incubated with 0.2% Triton X-100 for 15 min at room temperature. After two washes of 5 min each with PBS, the samples were incubated with equilibration buffer (from kit) for 10 min at room temperature. The equilibration buffer was drained, and reaction buffer containing equilibration buffer, nucleotide mix, and TdT enzyme was added to the tissue sections and incubated in a humid atmosphere at 37° C. for 1 h in the dark. The reaction was terminated by immersing the samples in 2×SSC for 15 min. Samples were washed 3 times for 5 min to remove unincorporated fluorescein-dUTP. For quantification of […], the samples were incubated with 300 μg/ml of Hoechst stain for 10 min at room temperature. Fluorescent bleaching was minimized by treating slides with an enhancing reagent (Prolong solution). […]

EGF-R = target: T1, EGF-R (Homo sapiens, UniProt P00533); assay: Western blot analysis of EGF-R autophosphorylation in L3.6pl cells; assay type: cell-based; details: concentration of 10 μM (data not shown)
T1 construct: endogenous in cells; host or cells: L3.6pl human pancreatic cancer cells
T1 sequence (P00533 25-1210): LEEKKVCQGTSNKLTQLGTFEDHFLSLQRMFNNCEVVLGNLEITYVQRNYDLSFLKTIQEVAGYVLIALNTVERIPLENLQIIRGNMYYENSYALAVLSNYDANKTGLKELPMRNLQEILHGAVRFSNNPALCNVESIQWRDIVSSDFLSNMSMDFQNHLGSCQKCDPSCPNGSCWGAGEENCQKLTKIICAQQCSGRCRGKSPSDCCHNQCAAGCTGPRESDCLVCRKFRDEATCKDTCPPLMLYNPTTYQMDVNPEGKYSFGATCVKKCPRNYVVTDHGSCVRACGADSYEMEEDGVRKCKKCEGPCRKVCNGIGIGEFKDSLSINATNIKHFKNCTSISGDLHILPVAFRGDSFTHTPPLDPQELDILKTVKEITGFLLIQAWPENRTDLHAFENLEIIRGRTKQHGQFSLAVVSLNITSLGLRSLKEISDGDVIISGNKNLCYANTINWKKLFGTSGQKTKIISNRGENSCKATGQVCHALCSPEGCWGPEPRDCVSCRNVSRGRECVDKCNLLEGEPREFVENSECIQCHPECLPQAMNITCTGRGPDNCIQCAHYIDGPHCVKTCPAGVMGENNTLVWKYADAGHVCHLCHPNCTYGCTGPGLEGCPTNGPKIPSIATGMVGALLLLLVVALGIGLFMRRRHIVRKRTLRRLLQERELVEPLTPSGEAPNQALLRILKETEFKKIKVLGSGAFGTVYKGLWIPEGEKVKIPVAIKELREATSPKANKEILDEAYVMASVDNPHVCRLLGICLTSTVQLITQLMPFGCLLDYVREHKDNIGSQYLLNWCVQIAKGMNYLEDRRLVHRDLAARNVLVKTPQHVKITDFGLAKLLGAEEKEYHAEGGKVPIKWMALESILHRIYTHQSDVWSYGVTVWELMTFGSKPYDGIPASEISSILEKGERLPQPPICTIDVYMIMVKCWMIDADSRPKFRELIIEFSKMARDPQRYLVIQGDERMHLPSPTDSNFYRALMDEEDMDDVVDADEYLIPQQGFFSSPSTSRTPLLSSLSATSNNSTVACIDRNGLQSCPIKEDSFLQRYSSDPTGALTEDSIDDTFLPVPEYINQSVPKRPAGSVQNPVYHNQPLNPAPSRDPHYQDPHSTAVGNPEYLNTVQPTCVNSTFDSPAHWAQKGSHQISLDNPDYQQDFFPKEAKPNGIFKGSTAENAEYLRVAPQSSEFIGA
Experimental: Western Blot Analysis of EGF-R Autophosphorylation following Treatment with PKI166. […] without 40 ng/ml rhEGF for 10 min, washed, and scraped into PBS containing 5 mM EDTA and 1 mM Na Orthovanadate, and centrifuged, and the pellet resuspended in lysis buffer (20 mM Tris-HCl, pH 8.0, 137 mM NaCl, 10% glycerol, 2 mM EDTA, 1 mM phenylmethylsulfonyl fluoride, 20 μM leupeptin, and 0.15 U/ml aprotinin) sonicated, and centrifuged to recover […] protein. Immunoprecipitation was performed using Mab anti-EGF-R (clone EGF-RI) as described previously (Perrotte et al. 1999; Parker et al. 1998). Immunoprecipitates were analyzed on 7.5% NaDodSO4-PAGE and transferred onto 0.45-μm nitrocellulose membranes. The filters were blocked with 3% bovine serum albumin in TDS (20 mM Tris-HCl, pH 7.5, 150 mM NaCl), probed with either polyclonal sheep anti-human EGF-R (1:1000) or monoclonal anti-phosphotyrosine (Mab 4G10) (1:2000) in TTBS (0.1% Tween 20 in TBS), and incubated with horseradish peroxidase-conjugated donkey anti-sheep IgG (1:2000) (Sigma Immunochemicals, St. Louis, Mo.) or sheep anti-mouse IgG (1:2000), respectively, in TTBS. Protein bands were visualized by ECL detection system. For an additional experiment, serum-starved L3.6pl cells were treated with gemcitabine (10 nM) with or without PKI166 (0.05, 0.5 μM) for 1 h, and then incubated with or without rhEGF (40 ng/ml) for 10 min. […]

L3.6pl cells = assay: In vitro cytotoxicity assay (MTT); assay type: cell-based; details: Homo sapiens, 144 h, 6 days
Experimental: In Vitro Cytotoxicity Assay. In all assays, 700–1000 tumor cells were seeded into 38-mm^2 wells of flat-bottomed 96-well plates in quadruplicate and allowed to adhere overnight. The cultures were then washed and refed with medium (negative control) or medium containing PKI166 with or without gemcitabine. […] Following a 2–4 h incubation in medium containing 0.42 mg/ml of MTT, the cells were lysed in DMSO. The conversion of MTT to formazan by metabolically viable cells was monitored by an MR-5000 96-well microtiter plate reader at 570 nm (Dynatech, Inc., Chantilly, Va.). Growth inhibition was calculated from the formula: Cytostasis (%)=[1−(A/B)]×100, where A is the absorbance of treated cells and B is the absorbance of the control cells.

VEGF = assay: In vitro expression of VEGF by L3.6pl cells (ELISA); assay type: cell-based, human; details: 72 h, 1 μM PKI166 or 10 nM gemcitabine, control 1400 pg/ml
Experimental: (§1) In vitro Expression of VEGF and IL-8. L3.6pl cells (2000 cells/38 mm^2 well) were plated into 96-well plates in 200 μl supplemented DMEM containing 5% FBS for 24 h, and then treated with 0.05, 0.5, or 1 μM PKI166. Supplemented DMEM (5% FBS) and human IgG (10 μg/ml) served as controls. Seventy-two hours later, the culture supernatants were collected, and the level of VEGF and IL-8 proteins (corrected for cell number) were determined by Quantikine ELISA kits.

IL-8 = assay: In vitro expression of IL-8 by L3.6pl cells (ELISA); assay type: cell-based, human; details: 72 h, 1 μM PKI166 or 10 nM gemcitabine, control 1440 pg/ml
Experimental: as §1

[2] = system: L3.6pl human pancreatic cancer cells; assay: Preliminary gemcitabine dose-response experiment in nude mice with pancreatic tumors; assay type: in vivo; details: gemcitabine 250 mg/kg and 500 mg/kg compared to 125 mg/kg (data not shown)
Experimental: To evaluate the therapeutic effect of gemcitabine in this animal model, a preliminary dose-response experiment was performed. […] All mice were killed on day 35. The volume of tumors and incidence of metastasis were determined.

[3] = system: L3.6pl human pancreatic cancer cells
From the text: Animals and Orthotopic Implantation of Tumor Cells. Male athymic nude mice (NCr-nu) were purchased from the Animal Production Area of the National Cancer Institute-Frederick Cancer Research and Development Center (Frederick, Md.). The mice were housed and maintained in laminar flow cabinets under specific pathogen-free conditions in facilities approved by the American Association for Accreditation of Laboratory Animal Care and in accordance with current regulations and standards of the U. S. Department of Agriculture, U.S. Department of Health and Human Services, and the National Institutes of Health. The mice were used in accordance with institutional guidelines when they were 8 to 12 wk old.
Orthotopic Implantation of Tumor Cells. To produce tumors, L3.6pl cells were harvested from subconfluent cultures by a brief exposure to 0.25% trypsin and 0.02% EDTA. Trypsinization was stopped with medium containing 10% FBS, and the cells were washed once in serum-free medium and resuspended in HBSS. Only suspensions consisting of single cells with greater than 90% viability were used for the injections. Cells were injected into the pancreas as described previously. The mice were killed when moribund (5–6 wk). The size and weight of the primary pancreatic tumors, the incidence of regional (celiac and paraaortal) lymph node metastasis, and the number of liver metastases were recorded. Histopathology confirmed the nature of the disease.
Therapy of Established Human Pancreatic Carcinoma Tumors Growing in the Pancreas of Athymic Nude Mice. Seven days after implantation of tumor cells into the pancreas, 5 mice were killed and the presence of tumor lesions was determined. At this time, the median tumor volume was 18 mm^3. Histological examination confirmed the lesions to be actively growing pancreatic cancer.
Necropsy Procedures and Histological Studies. Mice were euthanized and the body weight was determined. Primary tumors in the pancreas were excised and weighed. […] Visible liver metastases were counted with the aid of a dissecting microscope and processed for H&E staining. All macroscopically enlarged regional (celiac and paraaortal) lymph nodes were harvested, and the presence of metastatic disease was confirmed by histology.

[4] = mean ± SD absorbance, ratio of tumor cell to normal pancreatic gland expression ×100, day 35

Compound: Nc1ccn([C@@H]2O[C@H](CO)[C@@H](O)C2(F)F)c(=O)n1 [gemcitabine]
- ratio of PCNA-positive over TUNEL-positive cells ([1]; calculated): 1.1
- Staining of pancreatic tumors for activated (phosphorylated) EGF-R ([1]; immunohistochemistry of tumors from treated nude mice): stained positive
- IL-8 [1, 4]: 299 ± 43
- VEGF [1, 4]: 298 ± 54
- PCNA+ tumor cells ([1]; day 35): 237±66 positive cells/field
- TUNEL+ tumor cells ([1]; day 35): 225±95 positive cells/field
- PCNA+ tumor cells ([1]; day 35, listed as Gemcitabine): 237 ± 66 positive cells/field
- TUNEL+ tumor cells ([1]; day 35, listed as Gemcitabine): 225 ± 95^e positive cells/field
- CD (CD31, tumor MVD per field) ([1]; day 35): 52±18
- CD (CD31, tumor MVD per field) ([1]; day 35, listed as Gemcitabine): 52
- Effect on autophosphorylation of EGF-R (EGF-R): did not affect
- IC50 (L3.6pl cells; gemcitabine alone): 880 nM
- IC50 (L3.6pl cells; in the presence of PKI166 (0.03 μM)): 520 nM
- VEGF in culture supernatant (VEGF): 1280 pg/mL
- IL-8 in culture supernatant (IL-8): 2000 pg/mL
- Effect of increasing the dose on pancreatic tumor growth and metastasis [2]: did not further reduce
- Histologically positive regional lymph node metastases, share of animals ([3]; day 35): 90%
- Reduction of growth of primary pancreatic neoplasms ([3]; human pancreatic carcinoma in pancreas of nude mice): 45%
